The structures appear in SMILES notation. Where “and” joins values, the source holds several entries; their conditions need not be identical. Equal values may be shown once.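 96-well plates; 48 h exposure; 5 concentrations. Endpoints by linear interpolation between flanking doses. Not reached: highest tested concentration assigned. GI50 marks 50% less growth. TGI: concentration producing complete growth inhibition.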

TGI and GI50 data for 29 molecules are collected here from PubChem BioAssay (NCI).

The first experiment concerns DMS 114 small cell lung. The experiment can be described thus: NCI tumour cell line growth inhibition, 48 h.
Regarding `CC(C)C(=O)NS(=O)(=O)c1ccccc1`, the TGI is over 100 µM. Turning to `COC1(OC)CC2C(=O)N(Cc3ccccc3)C1C=C2S(=O)(=O)c1ccccc1` (configuration not stated), the TGI came to 31.9 µM. As for `COc1cc2c(OC)cc1CSCc1sc(C)c(c1Br)CSC2`, the TGI is over 100 µM. In the case of `Cc1cccc(C)c1NC(=O)C(=O)C(C(=O)c1ccccc1-c1ccccc1)C1OC(=O)c2ccccc21` (configuration not stated), the TGI is 32.4 µM. In turn, `CC1COC(C)(C)P(=O)(c2ccccc2)C1` (configuration not stated) yielded a TGI of over 100 µM.

For `CCOP(=O)(OCC)OC1C=CC2CCC1C2` (configuration not stated), the TGI is over 100 µM. On the same count and under the same terms, in the case of `COC(=O)[C@H]1C=C[C@@H](C)n2c(=O)c3cc4ccccc4cc3c(=O)n21` it was over 100 µM; in that of `COc1cc(C=O)c(-c2cc(OC)c(OC)cc2C=O)cc1OC`, 88.3 µM; in that of `N#CC(C(=O)C(=O)Nc1ccc(Cl)cc1)c1ccccc1` (configuration not stated), over 100 µM. Still for that read-out and setting: in the case of `COC(=O)/C=C1\CCC(C)O1` (configuration not stated) it was over 100 µM; in that of `O=C(/C=C/c1ccccc1Cl)NC1C=Nc2ccc([N+](=O)[O-])cc2NC1` (configuration not stated), over 100 µM. As for `CC[C@H]1CN2CCc3cc(OC)c(OC)cc3[C@@H]2C[C@@H]1C[C@H]1NCCc2c1[nH]c1ccc(O)cc21`, the GI50 is 0.0047 µM and 0.0133 µM; the TGI was 0.0184 µM and 0.0571 µM. In the case of `CCCO/S(=N\S(=O)(=O)c1ccccc1)c1ccccc1[N+](=O)[O-]` (configuration not stated), the TGI was over 100 µM. Consider `Cc1ccc(C)c(N=C2NC(=O)C(CC(=O)Nc3ccc(Cl)cc3Cl)S2)c1` (configuration not stated), for which the TGI is over 100 µM.

Consider `C/C(CC(=O)Nc1cccc(Cl)c1C)=N\NC(=O)c1ccncc1`, for which the TGI was over 100 µM. The molecule `Cc1cc(NS(=O)(=O)c2ccc(Nc3c4ccccc4nc4c(C(=O)N5CCN(CCO)CC5)ccc(Cl)c34)cc2)no1` came in with a TGI of over 100 µM. `O=C(O)CC(NC(=O)CP(=O)(O)O)C(=O)O` (configuration not stated): the TGI was over 10000 µM. As to `Cc1nc([N+](=O)[O-])cn1CC(=N)N`, the TGI is over 100 µM. Molecule `COC(=O)/C=C/c1c(CC=C(C)C)ncn1C` registered a TGI of over 100 µM. With `CC(C)C(=O)Nc1nc2c(ncn2C2OC(CO)C(O)C2O)c(=O)[nH]1` (configuration not stated), the TGI is over 100 µM. The molecule `O=S(=O)(c1ccccc1)C1CN2OC1(S(=O)(=O)c1ccccc1)CC2c1ccc(Br)cc1` (configuration not stated) returned a TGI of over 100 µM.

`O=Cc1ccc2c(c1-c1c(C=O)ccc3c1OCO3)OCO2` displayed a TGI of over 100 µM.

For the molecule `CC(=O)O[C@H]1CCC2[C@@H]3CCC4Nc5[nH]ncc5C[C@]4(C)C3CC[C@@]21C` (some centres not stated), the TGI is over 100 µM. The molecule `Cc1cc(C)nc(NS(=O)(=O)c2ccc(NC(=O)c3cccc4c(Nc5ccc(S(N)(=O)=O)cc5)c5ccccc5nc34)cc2)n1` displayed a TGI of 42.6 µM. For `Cc1cc(S(=O)(=O)O)c(NC(=O)C(=O)Cc2cc(=O)oc3cc(O)ccc23)cc1Cl`, the TGI is over 100 µM.

In the next experiment the test system is DMS 273 small cell lung. Briefly: NCI tumour cell line growth inhibition, 48 h.
In the case of `CC(=O)[O][Ga]([Br])[O]C(C)=O`, the GI50 was over 100 µM and the TGI is over 100 µM. Turning to `COc1cc2c(OC)cc1CSCc1sc(C)c(c1Br)CSC2`, the TGI was over 100 µM. Molecule `CC(C)N(C(=O)C12C3C4C1(I)C1C2C3(I)C41C(=O)N(C(C)C)C(C)C)C(C)C` (configuration not stated) registered a TGI of over 100 µM. Consider `CC1COC(C)(C)P(=O)(c2ccccc2)C1` (configuration not stated), for which the TGI was over 100 µM.

As to `Cc1ccc(S(=O)(=O)c2ccc(N)cc2)cc1`, the TGI is over 100 µM.

The molecule `CCOP(=O)(OCC)OC1C=CC2CCC1C2` (configuration not stated) showed a TGI of over 100 µM. `COC(=O)[C@H]1C=C[C@@H](C)n2c(=O)c3cc4ccccc4cc3c(=O)n21` registered a TGI of over 100 µM.

Consider `COc1cc(C=O)c(-c2cc(OC)c(OC)cc2C=O)cc1OC`, for which the TGI is over 100 µM.

Consider `N#CC(C(=O)C(=O)Nc1ccc(Cl)cc1)c1ccccc1` (configuration not stated), for which the TGI was over 100 µM.

As for `COc1c[c]([Hg][O]C(C)=O)c(OC)c(NC(=O)CC(C)=O)[c]1[Hg][O]C(C)=O`, the GI50 is 13.6 µM and the TGI was 36.7 µM. For the molecule `COC(=O)/C=C1\CCC(C)O1` (configuration not stated), the TGI was over 100 µM.

Consider `O=C(/C=C/c1ccccc1Cl)NC1C=Nc2ccc([N+](=O)[O-])cc2NC1` (configuration not stated), for which the TGI was over 100 µM. As for `CC[C@H]1CN2CCc3cc(OC)c(OC)cc3[C@@H]2C[C@@H]1C[C@H]1NCCc2c1[nH]c1ccc(O)cc21`, the GI50 is 0.0261 µM; the TGI is 0.084 µM and 0.024 µM. Molecule `CCCO/S(=N\S(=O)(=O)c1ccccc1)c1ccccc1[N+](=O)[O-]` (configuration not stated) showed a TGI of over 100 µM.

Molecule `Cc1ccc(C)c(N=C2NC(=O)C(CC(=O)Nc3ccc(Cl)cc3Cl)S2)c1` (configuration not stated) gave a TGI of over 100 µM.

With `C/C(CC(=O)Nc1cccc(Cl)c1C)=N\NC(=O)c1ccncc1`, the TGI was over 100 µM. `Cc1cc(NS(=O)(=O)c2ccc(Nc3c4ccccc4nc4c(C(=O)N5CCN(CCO)CC5)ccc(Cl)c34)cc2)no1` yielded a TGI of over 100 µM. On the same count and under the same terms, in the case of `O=C(O)CC(NC(=O)CP(=O)(O)O)C(=O)O` (configuration not stated) it was over 9020 µM. For the molecule `Cc1nc([N+](=O)[O-])cn1CC(=N)N`, the TGI was over 100 µM. With `COC(=O)/C=C/c1c(CC=C(C)C)ncn1C`, the TGI was over 100 µM.

As to `CC(C)C(=O)Nc1nc2c(ncn2C2OC(CO)C(O)C2O)c(=O)[nH]1` (configuration not stated), the TGI is over 100 µM. Molecule `O=S(=O)(c1ccccc1)C1CN2OC1(S(=O)(=O)c1ccccc1)CC2c1ccc(Br)cc1` (configuration not stated) came in with a TGI of over 100 µM. On the same count and under the same terms, in the case of `O=Cc1ccc2c(c1-c1c(C=O)ccc3c1OCO3)OCO2` it was over 100 µM; in that of `CC(=O)O[C@H]1CCC2[C@@H]3CCC4Nc5[nH]ncc5C[C@]4(C)C3CC[C@@]21C` (some centres not stated), over 100 µM; in that of `Cc1cc(C)nc(NS(=O)(=O)c2ccc(NC(=O)c3cccc4c(Nc5ccc(S(N)(=O)=O)cc5)c5ccccc5nc34)cc2)n1`, over 100 µM.

For the molecule `Cc1cc(S(=O)(=O)O)c(NC(=O)C(=O)Cc2cc(=O)oc3cc(O)ccc23)cc1Cl`, the TGI was over 100 µM.

The next experiment has as its system HOP-18 NSCLC. Briefly: NCI tumour cell line growth inhibition, 48 h.
`CC(C)C(=O)NS(=O)(=O)c1ccccc1` had a TGI of over 100 µM.

In the case of `COC1(OC)CC2C(=O)N(Cc3ccccc3)C1C=C2S(=O)(=O)c1ccccc1` (configuration not stated), the TGI is 31.9 µM.
